Measured values taken from patent publication US10968236B2, “TYK2 inhibitors and uses thereof” (Nimbus Lakshmi, Inc., priority 2015, dated 2021).
Structures can show the parent of a compound that is named as a salt.

Tests used:
[1] = molecular target: TYK2 (Homo sapiens (Human), UniProt P29597); test: Tyk2 activity inhibition assay (radioactive kinase / Caliper assay); assay type: biochemical
Method: (§1) Peptide substrate, [KKSRGDYMTMQIG], (20 μM) is prepared in reaction buffer (20 mM Hepes pH 7.5, 10 mM MgCl2, 1 mM EGTA, 0.02% Brij35, 0.02 mg/mL BSA, 0.1 mM […], 2 mM DTT, 1% DMSO. TYK2 (Invitrogen) kinase is added, followed by compounds in DMSO. 33PATP is added to initiate the reaction in ATP at 10 μM. Kinase reaction is incubated for 120 min at room temp and reactions are spotted onto P81 ion exchange paper (Whatman #3698-915), and then washed extensively in 0.75% phosphoric acid, prior to reading the radioactivity counts. For JAK2 (Invitrogen) kinase assay the peptide substrate poly[Glu:Tyr] (4:1), 0.2 mg/ml is used, in the reaction carried out the same as for TYK2.
(§2) The caliper machine employs an off chip mobility shift assay to detect phosphorylated peptide substrates from kinase assays, using microfluidics technology. The assays are carried out at ATP concentration equivalent to the ATP Km, and at 1 mM ATP. Compounds are serially diluted in DMSO then further diluted in assay buffer (25 mM HEPES, pH 7.5, 0.01% Brij-35, 0.01% Triton, 0.5 mM EGTA). 5 ul of diluted compound was added into wells first, then 10 ul of enzyme mix was added into wells, followed by 10 uL of substrate mix (peptide and ATP in 10 mM MgCl2) to start reaction. Reaction was incubated at 28° C. for 25 min and then added 25 ul stop buffer (100 mM HEPES, 0.015% Brij-35, 50 mM EDTA), followed by reading with Caliper. JAK2 at 1 nM final concentration and TYK2 at 9.75 nM are from Carna, and substrates used are ATP at 20 and 16 uM, respectively. JAK2 assay uses peptide 22 and TYK2 uses peptide 30 (Caliper), each at 3 uM.
(§3) The compound numbers correspond to the compound numbers in Table 1. Compounds having an activity designated as “A” provided an Ki≤0.01 μM; compounds having an activity designated as “B” provided an Ki of 0.01-0.1 μM; compounds having an activity designated as “C” provided an Ki of 0.1-1.0 μM; and compounds having an activity designated as “D” provided an Ki≥1.0 μM.

[2] = molecular target: JAK2 (Homo sapiens (Human), UniProt O60674); test: JAK2 activity inhibition assay (radioactive kinase / Caliper assay); assay type: biochemical
Sequence of JAK2 (O60674 whole entry): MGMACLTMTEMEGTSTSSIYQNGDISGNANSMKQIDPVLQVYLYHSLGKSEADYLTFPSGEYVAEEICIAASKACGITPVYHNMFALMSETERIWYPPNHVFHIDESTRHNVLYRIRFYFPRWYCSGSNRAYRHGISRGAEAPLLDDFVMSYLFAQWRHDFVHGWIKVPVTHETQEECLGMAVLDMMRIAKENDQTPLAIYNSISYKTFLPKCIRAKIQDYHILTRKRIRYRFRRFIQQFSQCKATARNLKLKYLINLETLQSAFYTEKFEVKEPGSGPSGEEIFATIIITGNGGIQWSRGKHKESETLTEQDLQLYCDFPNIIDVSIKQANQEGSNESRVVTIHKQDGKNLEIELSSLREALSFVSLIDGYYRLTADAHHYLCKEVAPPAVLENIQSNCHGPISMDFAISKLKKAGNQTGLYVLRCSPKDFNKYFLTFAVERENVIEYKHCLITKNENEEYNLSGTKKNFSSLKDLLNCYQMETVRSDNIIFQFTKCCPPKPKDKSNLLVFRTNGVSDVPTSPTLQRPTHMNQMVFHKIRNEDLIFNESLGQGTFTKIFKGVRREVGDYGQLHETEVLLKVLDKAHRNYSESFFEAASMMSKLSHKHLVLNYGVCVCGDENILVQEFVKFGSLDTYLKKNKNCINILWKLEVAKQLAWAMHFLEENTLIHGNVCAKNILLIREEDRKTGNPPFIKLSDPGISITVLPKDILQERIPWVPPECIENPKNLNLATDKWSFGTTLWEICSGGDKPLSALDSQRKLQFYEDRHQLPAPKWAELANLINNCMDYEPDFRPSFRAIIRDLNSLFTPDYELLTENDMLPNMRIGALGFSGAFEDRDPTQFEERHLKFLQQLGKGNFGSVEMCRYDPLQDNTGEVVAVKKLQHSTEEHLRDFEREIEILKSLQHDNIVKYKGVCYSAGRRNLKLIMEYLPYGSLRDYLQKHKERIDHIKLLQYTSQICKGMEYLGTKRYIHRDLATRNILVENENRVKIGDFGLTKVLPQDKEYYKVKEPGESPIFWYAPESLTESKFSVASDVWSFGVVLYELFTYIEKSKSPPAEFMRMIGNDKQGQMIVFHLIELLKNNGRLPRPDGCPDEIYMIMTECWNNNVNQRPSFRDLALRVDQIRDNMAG
Method: as §1, §2, §3

Sequence of TYK2 (P29597 whole entry): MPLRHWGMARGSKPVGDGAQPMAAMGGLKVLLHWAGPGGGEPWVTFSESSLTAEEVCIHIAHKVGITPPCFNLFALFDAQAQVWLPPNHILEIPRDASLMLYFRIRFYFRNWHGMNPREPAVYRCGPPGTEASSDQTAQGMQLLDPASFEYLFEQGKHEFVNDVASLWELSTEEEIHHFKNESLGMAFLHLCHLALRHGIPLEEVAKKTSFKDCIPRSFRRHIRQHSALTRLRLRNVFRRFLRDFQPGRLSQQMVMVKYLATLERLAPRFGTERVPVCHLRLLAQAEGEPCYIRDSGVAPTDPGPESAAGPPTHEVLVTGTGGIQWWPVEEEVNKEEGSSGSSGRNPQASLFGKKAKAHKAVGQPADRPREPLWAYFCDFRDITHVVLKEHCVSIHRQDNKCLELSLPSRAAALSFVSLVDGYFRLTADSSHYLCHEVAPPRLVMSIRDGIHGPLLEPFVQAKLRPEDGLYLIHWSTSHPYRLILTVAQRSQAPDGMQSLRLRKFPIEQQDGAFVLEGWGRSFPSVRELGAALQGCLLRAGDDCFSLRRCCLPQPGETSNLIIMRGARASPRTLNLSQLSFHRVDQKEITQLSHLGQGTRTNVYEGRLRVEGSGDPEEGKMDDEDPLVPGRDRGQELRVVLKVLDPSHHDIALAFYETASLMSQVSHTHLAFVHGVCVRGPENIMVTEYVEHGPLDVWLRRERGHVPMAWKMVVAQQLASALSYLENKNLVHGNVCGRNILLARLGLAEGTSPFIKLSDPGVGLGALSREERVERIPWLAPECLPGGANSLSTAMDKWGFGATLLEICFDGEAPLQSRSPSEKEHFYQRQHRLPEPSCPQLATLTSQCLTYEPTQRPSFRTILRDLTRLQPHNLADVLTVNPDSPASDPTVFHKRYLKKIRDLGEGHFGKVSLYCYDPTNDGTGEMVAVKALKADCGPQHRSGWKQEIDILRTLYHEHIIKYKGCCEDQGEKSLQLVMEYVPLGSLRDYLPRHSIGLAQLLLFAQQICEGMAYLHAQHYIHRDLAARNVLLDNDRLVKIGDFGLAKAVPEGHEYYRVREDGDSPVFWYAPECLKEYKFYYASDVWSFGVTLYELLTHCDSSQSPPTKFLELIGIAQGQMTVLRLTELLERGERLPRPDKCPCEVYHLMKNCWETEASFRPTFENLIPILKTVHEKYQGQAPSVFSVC

Row | SMILES | Ki [1] | Ki [2]
1 | CN1C(=O)C(C)(c2ccc(Nc3nc(-c4c(F)cccc4F)nc4c3C(=O)NC4)cc2)c2ccccc21 (stereo not drawn) [Compound I-48, 2-(2,6-difluorophenyl)-4-((4-(1,3-dimethyl-2-oxoindolin-3-yl)phenyl)amino)-6,7-dihydro-5H-pyrrolo[3,4-d]pyrimidin-5-one] | 10 to 100 nM | 100 to 1000 nM
2 | N#Cc1cccc(F)c1-c1cc(Nc2ccc(N3CC[C@]4(C[C@@H](O)CO4)C3)cn2)c2c(n1)CNC2=O [Compound I-92, 3-fluoro-2-(4-((5-((3R,5S)-3-hydroxy-1-oxa-7-azaspiro[4.4]nonan-7-yl)pyridin-2-yl)amino)-5-oxo-6,7-dihydro-5H-pyrrolo[3,4-b]pyridin-2-yl)benzonitrile] | ≤ 10 nM | 10 to 100 nM
3 | N#Cc1cccc(F)c1-c1cc(Nc2ccc(N3C[C@H]4COC[C@H]4C3)nc2)c2c(n1)CNC2=O [Compound I-74, 3-fluoro-2-(5-oxo-4-((6-((3aR,6aS)-tetrahydro-1H-furo[3,4-c]pyrrol-5(3H)-yl)pyridin-3-yl)amino)-6,7-dihydro-5H-pyrrolo[3,4-b]pyridin-2-yl)benzonitrile] | ≤ 10 nM | 100 to 1000 nM
4 | O=C1NCc2nc(-n3c(F)cccc3=O)cc(Nc3ccc(N4CCOCC4)cn3)c21 [Compound I-56, 2-(6-fluoro-2-oxopyridin-1(2H)-yl)-4-((5-morpholinopyridin-2-yl)amino)-6,7-dihydro-5H-pyrrolo[3,4-b]pyridin-5-one] | 10 to 100 nM | 100 to 1000 nM
5 | C[C@@](N)(C(=O)O)c1ccc(Nc2nc(-c3c(F)cccc3F)nc3c2C(=O)NC3)cc1 [Compound I-45, (S)-2-amino-2-(4-((2-(2,6-difluorophenyl)-5-oxo-6,7-dihydro-5H-pyrrolo[3,4-d]pyrimidin-4-yl)amino)phenyl)propanoic acid hydrochloride] | ≤ 10 nM | 100 to 1000 nM
6 | Nc1ccc2ccn(-c3cc(-c4c(F)cccc4F)nc4c3C(=O)NC4)c2n1 [Compound I-19, 4-(6-amino-1H-pyrrolo[2,3-b]pyridin-1-yl)-2-(2,6-difluorophenyl)-6,7-dihydro-5H-pyrrolo[3,4-b]pyridin-5-one] | 10 to 100 nM | ≥ 1000 nM
7 | COc1ccc(CNc2nc(-c3c(F)cccc3F)nc3c2C(=O)NC3)cc1 [Compound I-13, 2-(2,6-difluorophenyl)-4-((4-methoxybenzyl)-amino)-6,7-dihydro-5H-pyrrolo[3,4-d]pyrimidin-5-one] | 10 to 100 nM | 100 to 1000 nM
8 | O=C1NCc2nc(-c3c(F)cccc3F)cc(Nc3ccc(N4C[C@H]5COC[C@H]5C4)nc3)c21 [Compound I-73, 2-(2,6-difluorophenyl)-4-((6-((3aR,6aS)-tetrahydro-1H-furo[3,4-c]pyrrol-5(3H)-yl)pyridin-3-yl)amino)-6,7-dihydro-5H-pyrrolo[3,4-b]pyridin-5-one] | 10 to 100 nM | ≥ 1000 nM
9 | CC1(c2ccc(Nc3cc(-c4c(F)cccc4F)nc4c3C(=O)NC4)nc2)CC(C)(C)N(C2=CCOCC2)C1=O (stereo not drawn) [Compound I-55, 2-(2,6-difluorophenyl)-4-((5-(1-(3,6-dihydro-2H-pyran-4-yl)-3,5,5-trimethyl-2-oxopyrrolidin-3-yl)pyridin-2-yl)amino)-6,7-dihydro-5H-pyrrolo[3,4-b]pyridin-5-one] | ≤ 10 nM | ≤ 10 nM
10 | N#Cc1cccc(F)c1-c1cc(Nc2ccc(N3C[C@H]4COC[C@H]4C3)cn2)c2c(n1)CNC2=O [Compound I-76, 3-fluoro-2-(5-oxo-4-((5-((3aR,6aS)-tetrahydro-1H-furo[3,4-c]pyrrol-5(3H)-yl)pyridin-2-yl)amino)-6,7-dihydro-5H-pyrrolo[3,4-b]pyridin-2-yl)benzonitrile] | ≤ 10 nM | 10 to 100 nM
11 | C[C@](N)(C(=O)O)c1ccc(Nc2nc(-c3c(F)cccc3F)nc3c2C(=O)NC3)cc1 [Compound I-46, (R)-2-amino-2-(4-((2-(2,6-difluorophenyl)-5-oxo-6,7-dihydro-5H-pyrrolo[3,4-d]pyrimidin-4-yl)amino)phenyl)propanoic acid hydro-chloride] | 10 to 100 nM | 100 to 1000 nM
12 | O=C1NCc2nc(-c3c(F)cccc3F)cc(Nc3ccc(C(=O)N4CCOCC45CC5)cc3)c21 [Compound I-51, 4-((4-(7-oxa-4-azaspiro[2.5]octane-4-carbonyl)phenyl)amino)-2-(2,6-difluorophenyl)-6,7-dihydro-5H-pyrrolo[3,4-b]pyridin-5-one] | ≤ 10 nM | ≤ 10 nM
13 | O=C1NCc2nc(-c3c(F)cccc3F)cc(Nc3ccc(C(=O)N4CCC5(CCCCO5)CC4)cc3)c21 [Compound I-54, 4-((4-(1-oxa-9-azaspiro[5.5]undecane-9-carbonyl)phenyl)amino)-2-(2,6-difluorophenyl)-6,7-dihydro-5H-pyrrolo[3,4-b]pyridin-5-one] | ≤ 10 nM | 10 to 100 nM
14 | O=C1NCc2nc(-c3c(F)cccc3F)cc(Nc3ccc(C(=O)N4C[C@H]5COC[C@H]5C4)cc3)c21 [Compound I-63, 2-(2,6-difluorophenyl)-4-((4-((3aR,6aS)-hexahydro-1H-furo[3,4-c]pyrrole-5-carbonyl)phenyl)amino)-6,7-dihydro-5H-pyrrolo[3,4-b]pyridin-5-one] | ≤ 10 nM | 10 to 100 nM

Next, values leading:

Row | Ki [1] | Ki [2] | SMILES
15 | ≤ 10 nM | 10 to 100 nM | O=C1NCc2nc(-c3c(F)cccc3F)cc(Nc3ccc4cc[nH]c4n3)c21 [Compound I-21, 4-((1H-pyrrolo[2,3-b]pyridin-6-yl)amino)-2-(2,6-difluoro-phenyl)-6,7-dihydro-5H-pyrrolo[3,4-b]pyridin-5-one]
16 | ≤ 10 nM | ≤ 10 nM | CCNC(=O)C(C)(C)c1ccc(Nc2cc(-c3c(F)cccc3C#N)nc3c2C(=O)NC3)cc1 [Compound I-81, 2-(4-((2-(2-cyano-6-fluorophenyl)-5-oxo-6,7-dihydro-5H-pyrrolo[3,4-b]pyridin-4-yl)amino)phenyl)-N-ethyl-2-methylpropanamide]
17 | ≤ 10 nM | 100 to 1000 nM | O=C1NCc2nc(-c3c(F)cccc3F)nc(Nc3ccc(OC(CO)CO)cc3)c21 [Compound I-12, 2-(2,6-difluorophenyl)-4-((4-((1,3-dihydroxypropan-2-yl)oxy)phenyl)amino)-6,7-dihydro-5H-pyrrolo[3,4-d]pyrimidin-5-one]
18 | ≤ 10 nM | 100 to 1000 nM | C[C@@](O)(C(=O)O)c1ccc(Nc2nc(-c3c(F)cccc3F)nc3c2C(=O)NC3)cc1 [Compound I-7, (S)-2-(4-((2-(2,6-difluorophenyl)-5-oxo-6,7-dihydro-5H-pyrrolo[3,4-d]pyrimidin-4-yl)amino)phenyl)-2-hydroxypropanoic acid]
19 | ≤ 10 nM | 10 to 100 nM | CC(O)(c1ccc(Nc2cc(-c3c(F)cccc3F)nc3c2C(=O)NC3)cc1)C(F)(F)F (stereo not drawn) [Compound I-42, 2-(2,6-difluorophenyl)-4-((4-(1,1,1-trifluoro-2-hydroxypropan-2-yl)phenyl)amino)-6,7-dihydro-5H-pyrrolo[3,4-b]pyridin-5-one]
20 | ≤ 10 nM | 100 to 1000 nM | O=C1NCc2nc(-c3c(F)cccc3F)nc(Nc3ccc(C(=O)N4CC5CCC(C4)O5)cc3)c21 [Compound I-5, 4-((4-(8-oxa-3-azabicyclo[3.2.1]octane-3-carbonyl)phenyl)-amino)-2-(2,6-difluorophenyl)-6,7-dihydro-5H-pyrrolo[3,4-d]pyrimidin-5-one]
21 | ≤ 10 nM | 10 to 100 nM | CC1(C)COc2cc(Nc3cc(-c4c(F)cccc4C#N)nc4c3C(=O)NC4)ccc21 [Compound I-80, 2-(4-((3,3-dimethyl-2,3-dihydrobenzofuran-6-yl)amino)-5-oxo-6,7-dihydro-5H-pyrrolo[3,4-b]pyridin-2-yl)-3-fluorobenzonitrile]
22 | ≤ 10 nM | 100 to 1000 nM | C[C@](O)(C(=O)O)c1ccc(Nc2nc(-c3c(F)cccc3F)nc3c2C(=O)NC3)cc1 [Compound I-8, (R)-2-(4-((2-(2,6-difluorophenyl)-5-oxo-6,7-dihydro-5H-pyrrolo[3,4-d]pyrimidin-4-yl)amino)phenyl)-2-hydroxypropanoic acid]
23 | ≤ 10 nM | ≤ 10 nM | N#Cc1cccc(F)c1-c1cc(Nc2ccc(N3CC4(CC4)C(O)C4(CC4)C3)cn2)c2c(n1)CNC2=O [Compound I-87, 3-fluoro-2-(4-((5-(4-hydroxy-9-azadispiro[2.1.25.33]decan-9-yl)pyridin-2-yl)amino)-5-oxo-6,7-dihydro-5H-pyrrolo [3,4-b]pyridin-2-yl)benzonitrile]
24 | 10 to 100 nM | 100 to 1000 nM | O=C1NCc2nc(-c3c(F)cccc3F)cc(Nc3ccc4c(c3)OCO4)c21 [Compound I-68, 4-(benzo[d][1,3]dioxol-5-ylamino)-2-(2,6-difluorophenyl)-6,7-dihydro-5H-pyrrolo[3,4-b]pyridin-5-one]
